Experiments:
C. difficile 630Δerm [1] = assay: Toxicity growth curves (OD590 nm) of C. difficile monoculture in minimal media; format: cell-based, Clostridioides difficile; details: 8-hour growth curve; for effect on the growth of C. difficile (growth curve, OD590 nm): compound 6.6 mM in MM with 1% DMSO, FIGS. 1a to 5b
Experimental: (§1) Compounds EX1 to EX5 were separately tested to determine their toxicity to C. difficile and E. coli.
(§2) Each compound was dissolved to 6.6 mM in minimal media (MM) with 1% DMSO based on the MM described by Cartman et al. in Appln. Environ. Microbiol, 2010, 76, 1103 and the concentration was matched in a 1:1 ratio of the compound to the substrate p-HPA.
(§3) To determine growth rates of C. difficile and E. coli in the presence of compounds EX1 to EX5, three colonies of C. difficile or three colonies of E. coli were used to inoculate a primary culture of 10 mL MM in 50 cm^3 vented tissue culture flasks (Thermo Scientific). Following overnight incubation on a shaking platform at 50 rpm, the primary culture was back diluted in MM to OD590 nm 0.5 using a Fisherbrand™ Digital Colorimeter model 4.5 (Fisher Scientific). 1 ml of the OD590 nm 0.5 culture was inoculated into 10 ml of MM in 50 cm^3 vented tissue culture flasks with and without 4-hydroxyphenylacetic acid and the relevant compound (EX1 to EX5).
(§4) OD590 nm readings were determined every hour for eight hours using a Fisherbrand™ Digital Colorimeter model 4.5 (Fisher Scientific).
(§5) Growth curves denoting growth over an 8-hour time period for C. difficile and E. coli in MM with the presence of 4-hydroxyphenylacetic acid and inhibitors EX1 to EX5, each at 6.6 mM. Absorbance was measured at OD590 nm. *p<0.05, **p<0.01, samples represent a minimum of three biological replicates graphed in GraphPad prism (v9). Raw absorbance was normalised using a blank MM control.

E. coli [2] = assay: Toxicity growth curves (OD590 nm) of E. coli monoculture in minimal media; format: cell-based, Escherichia coli; details: compound 6.6 mM in MM with 1% DMSO, 8-hour growth curve, FIGS. 1a to 5b
Experimental: as §1, §2, §3, §4, §5

[3] = test system: production of 4-methylphenol by C. difficile; assay: HPLC of C. difficile monocultures: 4-methylphenol (p-cresol) production; format: cell-based, Clostridioides difficile; details: 630Δerm, 8 hours, 1.5 mg/ml p-HPA with matched 6.6 mM compound, normalised to OD590 nm, FIG. 14
Experimental: C. difficile monocultures were established in the presence of the following compounds EX1, EX3, EX5 and EX8.
Samples of 630Δerm were collected following growth in minimal media with 1% DMSO v/v for 8 hours with 1.5 mg/ml p-HPA with matched (6.6 mM) concentrations of compounds EX1, EX3, EX5 and EX8. At the time of sample collection, the OD590 nm of the culture was measured. Samples were immediately filter sterilised using 0.22 μm filters, then frozen at −80° C. prior to HPLC analysis.
The filter-sterilized samples were transferred to HPLC vials and analysed immediately by injecting onto the HPLC column. Separations were achieved by utilizing an Acclaim 120 (Thermofisher), C18, 5 μm (4.6×150 mm), with the mobile phase consisting of ammonium formate (10 mM, pH 2.7) and […] (v/v; 50:50) at a flow rate of 1400 μl/min. p-HPA and p-cresol were detected by the diode array detector (PDA; DAD 3000) set at 280 nm. Peak identity was confirmed by measuring the retention time of commercially available p-HPA and p-cresol, and determination of absorbance spectra was performed using the DAD. A calibration curve of each compound was generated by Chromeleon (Dionex software) using known amounts of the reference standards (0-5 mg/ml) dissolved in media and injected onto the column, and the amount of p-HPA and p-cresol in the samples was determined. Samples from three independent biological replicates were analysed compared to media controls and standard curves. The limit of detection for p-HPA and p-cresol are 0.001 and 0.0005 mg/ml, respectively. The p-cresol concentration was normalised to growth by using the OD590 nm measured at the time of sample collection.

[4] = test system: production of 4-methylphenol by C. difficile; assay: HPLC of C. difficile / E. coli co-culture: 4-methylphenol production; format: cell-based, Clostridioides difficile; details: 630Δerm and E. coli co-culture, no normalisation to OD590 nm, FIG. 15
Experimental: A C. difficile 630Δerm and E. coli co-culture was established (as per the methods previously described) in the presence of compound EX3.
Following co-culture, CFU assays were undertaken to determine relative survival of C. diff and E. coli. The remaining sample was filter sterilised (0.22 μm filters), then frozen at −80° C. prior to the HPLC analysis. HPLC analysis was carried out as described above (HPLC monocultures) with the exception of there being no normalisation of the 4-methylphenol concentration to OD590 nm.

E. coli [5] = assay: Co-culture of C. difficile and E. coli, CFU percentages: E. coli; format: cell-based, Escherichia coli; details: MM + 6.6 mM p-HPA + 6.6 mM inhibitor, 1% DMSO, 14 hours co-culture, FIGS. 7 to 13
Experimental: (§6) Compounds EX1 to EX7 were tested to determine their ability to reduce the growth of C. difficile relative to E. coli.
(§7) C. difficile 630Δerm and E. coli were grown overnight in MM. C. difficile was back diluted to an OD590 nm of 0.2. 18 μl of the back dilution was added to 1.8 ml of the test conditions: MM, MM+6.6 mM p-HPA, MM+6.6 mM inhibitor, and MM+6.6 mM p-HPA+6.6 mM inhibitor, in a 24 well plate. Each inhibitor was dissolved in DMSO such that the final concentration in the 24 well plate was 1% v/v. C. difficile was grown for 8 hours before E. coli underwent back dilution to an OD590 nm of 0.2 and 18 μl was inoculated into the C. difficile wells to give the co-culture. The co-culture was grown for 14 hours. The proportion of the co-cultures made up by C. difficile and E. coli were determined by colony-forming units per millilitre (CFU/ml) assays with co-cultures plated on to BHIS plates in duplicate with selective media for each species. C. difficile was selected for using cycloserine (250 mg/l) and cefoxitin (8 mg/l) whilst E. coli was selected for using vancomycin (4 mg/l). […] CFUs were counted on the following day. CFU data is presented using CFU percentages which were calculated by dividing the number of CFUs for each species by the total number of CFUs for both E. coli and C. difficile and multiplying by 100. […] Data was analysed by linear regression carried using Stata17.

C. difficile 630Δerm [6] = assay: Co-culture of C. difficile and E. coli, CFU percentages: C. difficile; format: cell-based, Clostridioides difficile; details: MM + 6.6 mM p-HPA + 6.6 mM inhibitor, 1% DMSO, 14 hours co-culture, FIGS. 7 to 13
Experimental: as §6, §7

| SMILES | effect on the growth of C. difficile (growth curve, OD590 nm) (C. difficile 630Δerm [1]) | effect on the growth of E. coli (growth curve, OD590 nm) (E. coli [2]) | production of 4-methylphenol by C. difficile (HPLC, monoculture) [3] | further results |
| --- | --- | --- | --- | --- |
| NC(=O)Cc1ccc(O)cc1 [EX1] | no effect on the growth | inhibited the growth | reduced |  |
| OCCc1ccc(O)cc1 [EX2] | toxic | toxic |  |  |
| N#CCc1ccc(O)cc1 [EX3] |  | inhibited the growth | reduced | effect on the growth of C. difficile when both compound and p-HPA present (C. difficile 630Δerm [1]; compound 6.6 mM + p-HPA 6.6 mM (1:1) in MM): inhibited the growth; production of 4-methylphenol by C. difficile (HPLC, co-culture with E. coli) [4]: reduced |
| O=C(O)CCc1ccc(O)cc1 [EX4] | no effect on the growth |  |  |  |
| O=C(O)c1ccc(O)cc1 [EX5] | no effect on the growth | no effect on the growth | reduced |  |
| CC(C)(C(=O)O)c1ccc(O)cc1 [EX6] |  |  |  | impact on the growth of E. coli in co-culture with C. difficile (E. coli [5]): little or no negative impact; inhibition of the growth of C. difficile in co-culture with E. coli (CFU percentage) (C. difficile 630Δerm [6]): able to inhibit the growth |
| O=C(O)Cc1ccc(O)cc1 [EX7] |  |  |  | impact on the growth of E. coli in co-culture with C. difficile (E. coli [5]): little or no negative impact; inhibition of the growth of C. difficile in co-culture with E. coli (CFU percentage) (C. difficile 630Δerm [6]): able to inhibit the growth |
| COC(=O)Cc1ccc(O)cc1 [EX8] |  |  | reduced |  |
